Where “and” joins values, the source holds several entries; their conditions need not be identical. Equal values may be shown once. Read-outs that look alike come from different tables or passages of the source.
What was measured:
[1] = tested on: SJSA-1 cells; test: MTT proliferation assay, SJSA-1; assay type: cell-based, human; conditions: for Mean Abs (±SD): 72 hours
[2] = tested on: STAT3; test: Immunofluorescence of Stat3 nuclear translocation after IL-6; assay type: cell-based; conditions: HEp-2, MDA-MB-231 and PANC-1 cells; sdAb 1:10 overnight; 100 ng/ml IL-6 15 min
Protocol: The cells were grown to confluence on chamber slides. […] As a negative control, no antibody was added to duplicate chambers. The slides were washed, and either serum-free media alone or 100 ng/ml recombinant human IL-6 (Peprotech, Rocky Hill, N.J.) in serum free media was added to the slides for 15 min at 37° C. The media was then removed and the chamber slides were fixed in ice cold 100% methanol for 10 min at −20° C.
Immunofluorescence assays were performed on the fixed slides. First, the slides were blocked with 3% BSA in PBS was done for one hour at room temperature. The primary antibody, Stat3(124H6) mouse monoclonal antibody (Cell Signaling Technology, Danvers, Mass.) was added to the slides at a 1:1000 dilution overnight in dark box at 4° C. The following day, the slides were washed and the secondary Alexa Fluor 488 anti-mouse IgG antibody (Cell Signaling Technology) was added at a 1:500 dilution and incubated for 1 hour at room temperature. The slides were then washed, mounted with mounting media and viewed with a fluorescence microscope.

[3] = tested on: MCF-7 xenograft; conditions: for Caliper Measurement W / Caliper Measurement L / Tumor Volume TV: individual animals; for Caliper Measurement W / Caliper Measurement L / Tumor Volume TV / Tumor Volume TV, group Mean: VHH13 1 mg/kg ip tid × 14
[4] = tested on: SJSA-1 xenograft; test: SJSA-1 Bone Osteosarcoma subcutaneous xenograft model
[5] = Group 2, 1 mg/kg ip tid × 14 first Day 2 doses
[6] = SBT-100 5.0 mg/kg BID 14 days IP, Doxorubicin 7.0 mg/kg days 1, 8 and 14 IP
[7] = study day 9 post implant, IP, SBT-100 5.0 mg/kg BIDx14 and/or Doxorubicin 7.0 mg/kg days 1, 8, 14
[8] = study day 13 post implant, IP, SBT-100 5.0 mg/kg BIDx14 and/or Doxorubicin 7.0 mg/kg days 1, 8, 14
[9] = study day 16 post implant, IP, SBT-100 5.0 mg/kg BIDx14 and/or Doxorubicin 7.0 mg/kg days 1, 8, 14
[10] = study day 20 post implant, IP, SBT-100 5.0 mg/kg BIDx14 and/or Doxorubicin 7.0 mg/kg days 1, 8, 14
[11] = study day 21 post implant, IP, SBT-100 5.0 mg/kg BIDx14 and/or Doxorubicin 7.0 mg/kg days 1, 8, 14
[12] = study day 23 post implant, IP, SBT-100 5.0 mg/kg BIDx14 and/or Doxorubicin 7.0 mg/kg days 1, 8, 14
[13] = study day 27 post implant, IP, SBT-100 5.0 mg/kg BIDx14 and/or Doxorubicin 7.0 mg/kg days 1, 8, 14

Substance: anti-STAT3 VHH13: anti-STAT3 single-domain antibody, SEQ ID NO:3; bacterially produced, referred to as SBT-100
- IC50 ([1]; SJSA, 72 hr): IC50 = 51 μg/ml
- Mean Abs (±SD) ([1]; Table 72 (experiment 5a), SBT-100 3.13 μg/ml alone): 0.278 ± 0.057
- Mean Abs (±SD) ([1]; Table 72 (experiment 5a), SBT-100 6.25 μg/ml alone): 0.258 ± 0.097
- Mean Abs (±SD) ([1]; Table 72 (experiment 5a), SBT-100 25 μg/ml alone): 0.221 ± 0.034
- Mean Abs (±SD) ([1]; Table 72 (experiment 5a), SBT-100 50 μg/ml alone): 0.066 ± 0.003
- Mean Abs (±SD) ([1]; Table 72 (experiment 5a), SBT-100 100 μg/ml alone): 0.058 ± 0.002
- Mean Abs (±SD) ([1]; Table 73 (Experiment 2, 5b), SBT-100 3.13 μg/ml alone): 0.774 ± 0.068
- Mean Abs (±SD) ([1]; Table 73 (Experiment 2, 5b), SBT-100 6.25 μg/ml alone): 0.835 ± 0.058
- Mean Abs (±SD) ([1]; Table 73 (Experiment 2, 5b), SBT-100 25 μg/ml alone): 0.781 ± 0.057
- Mean Abs (±SD) ([1]; Table 73 (Experiment 2, 5b), SBT-100 50 μg/ml alone): 0.460 ± 0.038
- Mean Abs (±SD) ([1]; Table 73 (Experiment 2, 5b), SBT-100 100 μg/ml alone): 0.091 ± 0.002
- translocation of Stat3 to the nucleus following IL-6 treatment [2]: blocks the translocation of Stat3 to the nucleus
- time for the group to reach a tumor volume of 1000 mm^3 ([3]; 1 mg/kg ip tid x 14, control group 25 days): 36 days
- Caliper Measurement W ([3]; Day 1): 6 mm
- Caliper Measurement L ([3]; Day 1, 1 mg/kg): 6 mm (2×) and 7 mm (2×)
- Tumor Volume TV ([3]; Day 4 (Jul. 30, 2015), 1 mg/kg): 196 mm^3 and 126 mm^3 and 144 mm^3
- Caliper Measurement L ([3]; Day 4, 1 mg/kg): 8 mm (2×) and 7 mm
- Caliper Measurement W ([3]; Day 4, 1 mg/kg): 7 mm and 6 mm (2×)
- Caliper Measurement L ([3]; Day 8, 1 mg/kg): 8 mm
- Caliper Measurement W ([3]; Day 8, 1 mg/kg): 7 mm
- Caliper Measurement L ([3]; Day 11, 1 mg/kg): 8 mm
- Caliper Measurement W ([3]; Day 11, 1 mg/kg): 9 mm and 7 mm
- Tumor Volume TV, group Mean ([3]; Day 15): 346.5 mm^3
- Caliper Measurement L ([3]; Day 15, 1 mg/kg): 9 mm
- Caliper Measurement W ([3]; Day 15, 1 mg/kg): 9 mm
- Tumor Volume TV ([3]; Day 15, 1 mg/kg): 405 mm^3 and 288 mm^3
- Caliper Measurement L ([3]; Day 18, 1 mg/kg): 9 mm
- Caliper Measurement W ([3]; Day 18, 1 mg/kg): 9 mm
- Caliper Measurement L ([3]; Day 22, 1 mg/kg): 11 mm
- Caliper Measurement W ([3]; Day 22, 1 mg/kg): 9 mm
- Caliper Measurement L ([3]; Day 25, 1 mg/kg): 12 mm
- Caliper Measurement W ([3]; Day 25, 1 mg/kg): 12 mm and 9 mm
- Caliper Measurement L ([3]; Day 29, 1 mg/kg): 13 mm
- Caliper Measurement W ([3]; Day 29, 1 mg/kg): 13 mm
- Tumor Volume TV, group Mean ([3]; Day 32): 500 mm^3
- Tumor Volume TV ([3]; Day 32): 500 mm^3
- Caliper Measurement L ([3]; Day 36): 12 mm
- Caliper Measurement W ([3]; Day 36): 12 mm
- Caliper Measurement L ([3]; Day 39): 13 mm
- Caliper Measurement W ([3]; Day 39): 13 mm
- % TGD [3, 5]: 42%
- T-C [3, 5]: 9.7
- % T/C [4, 6]: 69.91%
- mean tumor growth inhibition at the end of the study [4, 6]: 25.23%
- mean tumor size (±S.E.) at termination [4, 6]: 1055.68±307.10
- mean tumor size (±SE) at the last day of dosing [4, 6]: 334.52±114.62
- mean tumor size compared to control ([4]; SJSA-1 xenograft): non-significant decrease in mean tumor size
- tumor doubling time ([4]; control 8.22): 8.84
- % Inh Mean [4, 7]: 21.06%
- % Inh Med [4, 7]: 11.92%
- Mean Abs (tumor measurement) [4, 7]: 31.31 mm^3
- Median Abs (tumor measurement) [4, 7]: 19.98 mm^3
- Tumor Measurements, single animals [4, 7]: 15.75 mm^3 and 19.98 mm^3 and 0.00 mm^3 and 69.47 mm^3 and 10.46 mm^3 and 79.76 mm^3 and 23.77 mm^3
- % Inh Mean [4, 8]: −45.34%
- % Inh Med [4, 8]: −44.59%
- Mean Abs (tumor measurement) [4, 8]: 115.14 mm^3
- Median Abs (tumor measurement) [4, 8]: 85.60 mm^3
- Tumor Measurements, single animals [4, 8]: 106.64 mm^3 and 28.26 mm^3 and 0.00 mm^3 and 126.45 mm^3 and 38.25 mm^3 and 420.78 mm^3 and 85.60 mm^3
- % Inh Mean [4, 9]: 12.69%
- % Inh Med [4, 9]: 14.60%
- % T/C [4, 9]: 71.23%
- Mean Abs (tumor measurement) [4, 9]: 151.57 mm^3
- Median Abs (tumor measurement) [4, 9]: 139.83 mm^3
- Tumor Measurements, single animals [4, 9]: 139.83 mm^3 and 36.05 mm^3 and 11.02 mm^3 and 200.95 mm^3 and 187.82 mm^3 and 358.90 mm^3 and 126.46 mm^3
- % Inh Mean [4, 10]: 18.11%
- % Inh Med [4, 10]: 24.54%
- % T/C [4, 10]: 73.26%
- Mean Abs (tumor measurement) [4, 10]: 252.90 mm^3
- Median Abs (tumor measurement) [4, 10]: 191.62 mm^3
- Tumor Measurements, single animals [4, 10]: 191.62 mm^3 and 70.70 mm^3 and 59.97 mm^3 and 616.53 mm^3 and 180.38 mm^3 and 450.45 mm^3 and 200.68 mm^3
- % Inh Mean [4, 11]: 16.23%
- % Inh Med [4, 11]: 35.42%
- % T/C [4, 11]: 76.22%
- Mean Abs (tumor measurement) [4, 11]: 334.52 mm^3
- Median Abs (tumor measurement) [4, 11]: 198.86 mm^3
- Tumor Measurements, single animals [4, 11]: 271.05 mm^3 and 115.97 mm^3 and 96.53 mm^3 and 901.18 mm^3 and 155.51 mm^3 and 602.51 mm^3 and 198.86 mm^3
- % Inh Mean [4, 12]: 8.48%
- % Inh Med [4, 12]: 33.12%
- % T/C [4, 12]: 79.47%
- Mean Abs (tumor measurement) [4, 12]: 477.43 mm^3
- Median Abs (tumor measurement) [4, 12]: 308.49 mm^3
- Tumor Measurements, single animals [4, 12]: 308.49 mm^3 and 201.00 mm^3 and 185.39 mm^3 and 1,359.67 mm^3 and 197.83 mm^3 and 756.79 mm^3 and 332.80 mm^3
- % Inh Mean [4, 13]: 25.23%
- % Inh Med [4, 13]: 37.90%
- % T/C [4, 13]: 69.91%
- Mean Abs (tumor measurement) [4, 13]: 1,055.68 mm^3
- Median Abs (tumor measurement) [4, 13]: 707.34 mm^3
- Tumor Measurements, single animals [4, 13]: 707.34 mm^3 and 474.71 mm^3 and 380.72 mm^3 and 2,500.29 mm^3 and 351.21 mm^3 and 1,699.89 mm^3 and 1,275.63 mm^3
